Reference: PubChem BioAssay (NCI)
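Exposure lasted 48 hours, with cells grown in 96-well plates and compounds tested at five concentrations. TGI: total growth inhibition.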 Where a SMILES comes first, the peptide text is derived from it. The star is where a group is joined. Cbz = O=C(OCc1ccccc1)*; NHNH2 = NN*

Tests used:
Test in all cases: inhibition of tumour cell growth, NCI panel, 48 h
SNB-75 CNS = system: SNB-75 CNS
RXF 393 renal = system: RXF 393 renal
HT29 colon = system: HT29 colon
RPMI-8226 leukemia = system: RPMI-8226 leukemia
OVCAR-3 ovarian = system: OVCAR-3 ovarian
OVCAR-5 ovarian = system: OVCAR-5 ovarian
SNB-19 CNS = system: SNB-19 CNS
SF-539 CNS = system: SF-539 CNS
CCRF-CEM leukemia = system: CCRF-CEM leukemia

Row | Structure (SMILES) | TGI (SNB-75 CNS) | TGI (RXF 393 renal) | TGI (HT29 colon) | TGI (RPMI-8226 leukemia) | TGI (OVCAR-3 ovarian) | TGI (OVCAR-5 ovarian) | TGI (SNB-19 CNS) | TGI (SF-539 CNS) | TGI (CCRF-CEM leukemia)
1 | NC(=Nc1cccc(Cl)c1)c1ccccc1N | > 100 µM | > 100 µM | > 100 µM | > 100 µM | > 100 µM | > 100 µM | > 100 µM | – | –
2 | CCOC(=O)CCC(NC(=O)OCc1ccccc1)C(=O)NC(CCC(=O)OCC)C(=O)NN (configuration not stated) (Cbz-Glu(OEt)-Glu(OEt)-NHNH2; configuration not given here) | > 100 µM | – | > 100 µM | > 100 µM | – | > 100 µM | > 100 µM | – | –
3 | CNC(=O)OC(COC)CN1CCN(c2ccccc2C)CC1 (configuration not stated) | > 10 µM | > 10 µM | > 10 µM | > 10 µM | > 10 µM | – | > 10 µM | > 10 µM | > 10 µM
4 | CCCN1C(=O)/C(=C\c2ccc(OC)c(OC)c2)SC1=Nc1ccccc1 | – | – | > 100 µM | > 100 µM | > 100 µM | > 100 µM | > 100 µM | > 100 µM | > 100 µM
5 | O=C1CCCCC/C1=C\c1ccccc1 | > 100 µM | – | > 100 µM | > 100 µM | > 100 µM | > 100 µM | > 100 µM | – | –
6 | COc1cc2ccc1OCc1cccc(n1)COc1ccc(cc1OC)C=NCCNCCNCCN=C2 | > 100 µM | > 100 µM | > 100 µM | – | > 100 µM | > 100 µM | > 100 µM | > 100 µM | > 100 µM
7 | COC(=O)[C@@H]1CC(C(CN)c2cn(C(=O)OC(C)(C)C)c3ccccc23)C(=O)N1C(=O)OC(C)(C)C (some centres not stated) | 33.8 µM | 46.2 µM | 55.2 µM | 24.1 µM | 59.8 µM | 84.2 µM | > 100 µM | 28.3 µM | 34.8 µM
8 | N#CCN(CC#N)C1CC=CCC1N(CC#N)CC#N (configuration not stated) | – | > 100 µM | > 100 µM | > 100 µM | > 100 µM | > 100 µM | > 100 µM | > 100 µM | > 100 µM
9 | S=C(N1CCN(c2cccc(Cl)c2)CC1)N1CCN(c2cccc(Cl)c2)CC1 | – | > 100 µM | > 100 µM | > 100 µM | > 100 µM | > 100 µM | > 100 µM | – | 27.8 µM
10 | Nc1ccc(-c2nc3ccccc3s2)cc1C#Cc1ccccc1 | 59.7 µM | 34.6 µM | 35.4 µM | 47.2 µM | 33.1 µM | 54.5 µM | 72.1 µM | 35.4 µM | 93.2 µM
11 | CC[P+]1(c2ccccc2)[C@@H](C)CC[C@@H]1C | > 100 µM | > 100 µM | > 100 µM | > 100 µM | > 100 µM | > 100 µM | > 100 µM | > 100 µM | > 100 µM
12 | N#C/C(N)=C(\C#N)N=CNc1ccc(N)cc1 | > 100 µM | – | > 100 µM | > 100 µM | > 100 µM | > 100 µM | > 100 µM | > 100 µM | > 100 µM
13 | CC1(C)CC(=O)c2c(nc3c(ccc4ccccc43)c2-c2ccc(NC(=O)CCCCC(=O)Nc3ccc(-c4c5c(nc6c4ccc4ccccc46)CC(C)(C)CC5=O)cc3)cc2)C1 | 53.1 µM | > 100 µM | 62.3 µM | 71.4 µM | 80.8 µM | > 100 µM | > 100 µM | 46.6 µM | 78.3 µM
14 | CCOC(=O)C(C)c1nc2ccc(C(F)(F)F)cc2[nH]c1=O (configuration not stated) | > 100 µM | > 100 µM | > 100 µM | > 100 µM | > 100 µM | > 100 µM | > 100 µM | > 100 µM | > 100 µM
15 | CCOC(=O)c1cc(C2CCN(c3ccccc3)C2=O)c(C(=O)/C=C(/C)N)[nH]1 (configuration not stated) | 28.2 µM | 78.6 µM | 25.6 µM | > 100 µM | > 100 µM | > 100 µM | 52.4 µM | – | > 100 µM
16 | CCn1c(=O)c2nc(SC)sc2n(-c2ccccc2)c1=O | > 100 µM | > 100 µM | > 100 µM | > 100 µM | > 100 µM | > 100 µM | > 100 µM | > 100 µM | > 100 µM
17 | C=CCOc1ccccc1C1(O)c2ccccc2C2=NCCCN21 (configuration not stated) | > 100 µM | – | 36.2 µM | > 100 µM | 59.7 µM | > 100 µM | 79.5 µM | 39.5 µM | > 100 µM
18 | NC(Cc1ncccn1)C(=O)O (configuration not stated) | > 100 µM | > 100 µM | > 100 µM | > 100 µM | > 100 µM | > 100 µM | > 100 µM | > 100 µM | > 100 µM
19 | Cc1cccc2c(N)c3cccc(C(=O)NCC[N+]4(Cc5ccc([N+](=O)[O-])cc5)CCOCC4)c3nc12 | 63 µM | > 100 µM | > 100 µM | > 100 µM | > 100 µM | > 100 µM | > 100 µM | > 100 µM | > 100 µM
20 | Nc1c2c(nc3ccccc13)-c1ccccc1NCCC2 | > 100 µM | 33.2 µM | 83.9 µM | 58.5 µM | > 100 µM | > 100 µM | > 100 µM | 43.9 µM | 81.3 µM
21 | N#Cc1c(-c2ccc(Cl)cc2)c2c(N=Nc3c(O)ccc4ccccc34)[nH]nc2[nH]c1=O | – | 0.878 µM | 1.87 µM | – | 0.0736 µM | 2.73 µM | 1.91 µM | 1.37 µM | –
22 | O=C(O)c1ccc(Nc2nc3cc(C(F)(F)F)ccc3n3cccc23)cc1 | 81 µM | 58.8 µM | 30.9 µM | 68.6 µM | > 100 µM | > 100 µM | > 100 µM | 74.6 µM | > 100 µM
23 | O=S(=O)(O)c1ccc2c(N=Nc3ccc(Cl)cc3)c(O)ccc2c1 | > 100 µM | > 100 µM | > 100 µM | > 100 µM | > 100 µM | > 100 µM | > 100 µM | – | > 100 µM
24 | CN(C(=O)Cc1cc(Cl)c(Cl)cc1NC(=O)CN)[C@H]1CCCC[C@@H]1N1CCCC1 | 55.9 µM | > 100 µM | 58.7 µM | 94 µM | > 100 µM | > 100 µM | > 100 µM | – | 73.3 µM
25 | CC(C)(C)OC(=O)Cn1ncn(NC(=O)Cc2ccccc2)c1=O | – | – | > 10 µM | – | > 10 µM | > 10 µM | > 10 µM | > 10 µM | > 10 µM
26 | CC1C2=C(CCCC2=O)N(c2ccc(Cl)cc2)C2=C1C(=O)CCC2 | > 100 µM | 78.4 µM | > 100 µM | > 100 µM | > 100 µM | > 100 µM | > 100 µM | > 100 µM | > 100 µM
